Test results as given in patent publication US7875652B2, “Method and composition for treating pain or tinnitus aureum” (UCB Pharma GmbH, priority 2001, dated 2011).
Marks after values point to notes of the source that are not given here.

Assays:
[1] = tested on: formalin-induced nociception (paw licking); test: Subchronic inflammatory nociception in mice (formalin test); type: in vivo; conditions: for Nociceptive response induced by formalin: 10, 20, 40 mg/kg i.p.; for nociceptive threshold [s]: late phase (20-30 min), 10 mg/kg i.p.
Protocol: Subchronic inflammatory nocicoetion in mice was induced by the subplantar injection of formalin (0.02 ml of a 5% solution). Nociceptive behaviour (paw licking) was measured and quantified between 0 and 5 min (acute pain) and between 20 and 30 min (subchronic inflammatory pain) after formalin.
(§1) Drugs and experimental design: SPM 927 and GBP were suspended in 1% methylcellulose and administered i.p. at doses of 10 mg/kg, 20 mg/kg and 40 mg/kg. Pre-treatment time was 30 min before pain measurement. One group of animals served as controls and consequently received an injection of solvent (10 ml/kg) and another group of animals received a reference compound (Carrageenan test: 10 mg/kg indomethacin; Formalin test: 10 mg/kg morphine). Each compound was tested in a separate experiment and each experiment included a control and a reference group. 10 rats per group were used in the Carrageenan test and 6 mice per group in the formalin test.

[2] = tested on: Carrageenan-induced mechanical hyperalgesia; test: Carrageenan-induced mechanical hyperalgesia, paw pressure (Randall-Sellito) test; type: in vivo, rats; conditions: for Effect on Carrageenan-induced mechanical hyperalgesia: all doses tested (10, 20, 40 mg/kg i.p.)
Protocol: Carrageenan-induced mechanical hvderalcesia in rats was induced by subplantar injection of a 0.1 ml of a 2% carrageenan suspension and measured 3 h afterwards by the paw pressure (Randall-Sellito) test.
as §1

[3] = tested on: formalin-induced tonic inflammatory nociceptive behaviour; test: Formalin test, rat (weighted behavioural scoring); type: in vivo
Protocol: The formalin test is a chemically-induced tonic pain model in which biphasic changes of nociceptive behaviour are assessed and spinal/supraspinal plasticity of nociception is considered as a molecular basis for neuropathic pain particularly during the second (=late) phase of the test, during which most clinically used drugs against neuropathic pain are active.
The compound was tested for anti-nociceptive properties by use of the weighted behavioural scoring method: Freely moving animals underwent observational assessment of the position of the left hind paw according to a rating score scaled 0-3 before and 10, 20, 30 and 40 min after injection of 0.05 ml of sterile 2.5% formalin under the skin on the dorsal surface of the paw.

[4] = tested on: mechanical allodynia induced by unilateral nerve ligation; test: Chronic constriction injury (CCI) model, mechanical allodynia (Von Frey); type: in vivo, rat; conditions: 5-40 mg/kg i.p.
Protocol: (§2) The effectiveness of harkoseride in reducing spontaneous chronic pain, mechanical allodynia, and thermal hyperalgesia was tested using the chronic constriction injury (CCI) model of peripheral neuropathy, one of the best characterised in vivo animal models used to study chronic pain due to peripheral nerve injury. In this model, loose ligatures are placed around the sciatic nerve, which produces axonal swelling and a partial deafferentation manifested as a significant but incomplete loss of axons in the distal portion of the peripheral nerve. One of the prominent behaviours seen following sciatic nerve ligation is the appearance of hind paw guarding, thought to be an indication of an ongoing spontaneous chronic pain. Support for this idea is derived from reports of increased spinal cord neural activity, and increased spontaneous neuronal discharge in spinothalamic tract neurons and in the ventrobasal thalamus in the absence of overt peripheral stimulation. In addition to the appearance of spontaneous pain behaviours, several abnormalities in stimulus evoked pain occur as a result of CCI, including thermal hyperalgesia and mechanical allodynia. […]
Mechanical sensitivity and allodynia of the ligated rat hind paw was quantified by brisk foot withdrawal in response to normally innocuous mechanical stimuli as described previously. […]

[5] = tested on: spontaneous pain induced by unilateral chronic constriction injury; test: Chronic constriction injury (CCI, Bennett-model), spontaneous pain; type: in vivo, rat; conditions: 5-40 mg/kg i.p.
Protocol: as §2
Spontaneous pain (ongoing pain without an apparent external stimulus) of the ligated paw was assessed for 5 min following a 10 min acclimation period by use of a rating score (weighted behaviour score scaled 0-5).

[6] = tested on: neuropathic pain (CHUNG), tactile stimulation; test: Neuropathic pain (CHUNG) test, tactile stimulation on lesioned paw; type: in vivo, rat; conditions: tactile and thermal stimulation
From the text: The following Tables 8 and 9 show the effects of harkoseride (hereinafter referred to as SPM 927), carbamazepine, levetiracetam, gabapentin and morphine in the neuropathic pain (CHUNG) test in the rat. Eight (8) rats per group were used.

[7] = tested on: chronic constriction injury-induced thermal hyperalgesia; test: Chronic constriction injury (CCI) model, thermal hyperalgesia; type: in vivo, rat; conditions: 5-40 mg/kg i.p.
Protocol: as §2
Thermal hyperalgesia was assessed by means of withdrawal latency in response to radiant heat applied to the subplantar surface of the ligated rat hind paw. […]

[8] = tested on: acute spinal thermal nociception; test: Tail flick test, rat; type: in vivo
From the text: Harkoseride was additionally tested for potential activity in acute spinal thermal nociception using the tail flick test. In this model of acute thermal spinal/reflex hyperalgesia radiant heat is applied to the animal's tail approximately 2 cm from the tip and time latency for withdrawal reaction is automatically assessed by an algometer, a defined maximal stimulus time prevents tissue damage. This test is widely used as an assay for the anti-nociceptive efficacy of pharmacological agents and is highly predictive of acute analgesic efficacy in humans.
Results for 20 and 40 mg/kg harkoseride i.p are shown in table 5 [percent anti-nociception, calculated as [{(post-drug latency)−(pre-drug-latency)}/{(max. latency)−(pre-drug latency)}×100]±SEM, n=12/group]. A baseline or pre-drug tail-flick latency was determined by averaging 5 consecutive measurements taken 2 minutes apart. Vehicle (sterile water 0.04 ml/10 g body weight) or harkoseride were then administered and tail flick latencies recorded at 10-minute intervals for the next 60 minutes.

| Structure (SMILES) | Nociceptive response induced by formalin [1] | Effect on Carrageenan-induced mechanical hyperalgesia [2] | Formalin-induced tonic inflammatory nociceptive behaviour ([3]; i.p. just prior to formalin injection) | Efficacy in the late phase of the rat formalin test ([3]; late phase) | Intensity of mechanical allodynia induced by unilateral nerve ligation [4] | Level of spontaneous pain induced by unilateral chronic constriction injury [5] | Efficacy on formalin-induced nociception, similar to that of morphine ([1]; mouse, in vivo) | Potency compared with the reference compounds in the CHUNG test [6] | Chronic constriction injury-induced thermal hyperalgesia [7] | Effect on the latency of the tail flick reflex ([8]; 20 and 40 mg/kg i.p.) | Anti-nociceptive effect detectable in the tail-flick test ([8]; rat, in vivo) | Antinociceptive effect relative to reference compound ([2]; vs 10 mg/kg indomethacin) | nociceptive threshold [s] ([1]; GBP experiment) | nociceptive threshold [s] ([1]; SPM 927 experiment) |
| --- | --- | --- | --- | --- | --- | --- | --- | --- | --- | --- | --- | --- | --- | --- |
| NCC1(CC(=O)O)CCCCC1 [GBP, gabapentin, reference compound] | slightly but not significantly inhibited | no significant effect |  |  |  |  |  |  |  |  |  |  |  |  |
| COC[C@@H](NC(C)=O)C(=O)NCc1ccccc1 [SPM 927, (R)-2-Acetamido-N-benzyl-3-methoxypropionamide] | dose dependently suppressed | full reversal | dose dependant reduction | Significant and dose dependent efficacy | dose dependently reduced | did not change | near complete reversal | minimum comparable, but usually more potent than the reference compounds | dose dependently reduced | little or no effect | no anti-nociceptive effect | comparable to that of the reference compound Indomethacin |  |  |
| CN1CC[C@]23c4c5ccc(O)c4O[C@H]2[C@@H](O)C=C[C@H]3[C@H]1C5 [Morphine, morphine] |  |  |  |  |  |  |  |  |  |  |  |  | 0 ± 0^a s | 10 ± 8^a s |
